Assay results as given in PubChem BioAssay AID1963959 (Molecular Pharmacology Branch, DTP, NCI, 2024).

System: T-47D spheroids with HUVEC/MSC, viability
Assay: Anticancer human tumor T-47D cell line growth inhibition [PI3K];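 note: spheroids exposed to agents for seven days before reading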;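 for viability, T/C: percent of DMSO vehicle control luminescence so 100% = untreated growth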
Conditions: for viability, T/C: stronger effect = lower value
Description: Combinatorial screen of targeted agents with the PI3K inhibitors inavolisib, alpelisib, duvelisib, and copanlisib in multi-cell type tumor spheroids
A high-throughput screen of multi-cell type tumor spheroids was designed to identify active combinations of targeted small molecules and PI3K pathway inhibitors. Complex spheroids include a stromal component modeled by human endothelial cells (HUVEC) and fibroblasts modeled by human mesenchymal stem cells (MSCs). The concentration ranges selected for each drug and investigational agent were based upon clinically achievable concentrations if the clinical Cmax of the agent was known.
Compounds. The drugs and investigational agents: inavolisib (NSC800729), alpelisib (NSC765974), duvelisib (NSC772469), copanlisib (NSC816437), ipatasertib (NSC767898), afuresertib (NSC778305), talazoparib (NSC767125), sapanisertib (NSC764658), selumetinib (NSC741078), tovorafenib (DAY101, NSC766906), vemurafenib (NSC761431), ravoxertinib (NSC781343), sotorasib (NSC818433), MRTX1133 (NSC 836407), abemaciclib (NSC 768073), palbociclib (NSC758247), venetoclax (NSC 766270), SY5609 (NSC837396), enzalutamide (NSC755605), and darolutamide (NSC825331), were obtained from the National Cancer Institute (NCI) Developmental Therapeutics Program Chemical Repository. The FDA-approved anticancer drug set is available from the NCI Developmental Therapeutics Program. […] The stock solutions were prepared in dimethyl sulfoxide (DMSO, Sigma-Aldrich, St. Louis, MO, cat. D2650) at 800-fold the tested concentration and stored at -70 degrees C prior to their use. All drugs and investigational agents were tested over a range starting from a high concentration at or near the clinical Cmax and decreasing in half-log increments. If the clinical Cmax for an agent had not been determined, the highest concentration tested was 10 microM.
Cell Culture. All cells were maintained in an incubator at 37 degrees C and 5% CO2 with 95% humidity. The PDC lines were cultured according to standard operating procedures established by the NCI PDMR (https://pdmr.cancer.gov/sops/default.htm). All PDCs were thawed and cultured in Matrigel-coated flasks prepared with a working solution of 1X Ham's F-12 nutrient mix, without supplementation (Invitrogen, Waltham, MA, cat. 11765054), 100 U/mL penicillin-streptomycin (Invitrogen, cat. 15140122), and 2.5% Matrigel (Corning Inc., Corning, NY, cat. 354248) for the first three passages. The 354836-022-R-J1-PDC, 475296-252-R-J1-PDC, and 997726-040-R-J2-PDC lines were cultured in 6A media, which includes advanced DMEM/F-12 (Thermo Fisher Scientific, cat. 12634028), 10 mM HEPES (Thermo Fisher Scientific, cat. 15630080), 1X GlutaMAX supplement (Thermo Fisher Scientific, cat. 35050061), 0.1 mg/mL primocin (InvivoGen, San Diego, CA, cat. ant-pm-2), 10% defined fetal bovine serum, heat inactivated (HyClone Laboratories Inc., Logan, UT, cat. SH30070.03HI), 50% L-WRN conditioned media (ATCC, cat. CRL-3276), 1.25 mM N-Acetyl-L-cysteine (Sigma-Aldrich, cat. A9165), 10 mM nicotinamide (Sigma-Aldrich, cat. N0636), 1X B-27 supplement (Thermo Fisher Scientific, cat. 17504044), 1X N-2 supplement (Thermo Fisher Scientific, cat. 17502048), and 10 microM Y-27632 dihydrochloride (Tocris Bioscience, Bristol, United Kingdom, cat. 1254). The 624824-186-R-J2-PDC line was cultured in 6C/Colon 1B media, which includes all 6A media components plus 50 ng/mL human EGF recombinant protein (Thermo Fisher Scientific, cat. PHG0311). […]

[1] = curve of first compound, second compound 0.0316 µM
[2] = curve of first compound, second compound 0.1 µM
[3] = curve of first compound, second compound 0.316 µM
[4] = curve of first compound, second compound 1 µM
[5] = curve of first compound, second compound 3.16 µM
[6] = curve of first compound, second compound 10 µM
[7] = second compound 0.0316 µM, first compound 0.000316 µM
[8] = second compound 0.0316 µM, first compound 0.001 µM
[9] = second compound 0.0316 µM, first compound 0.00316 µM
[10] = second compound 0.0316 µM, first compound 0.01 µM
[11] = second compound 0.0316 µM, first compound 0.0316 µM
[12] = second compound 0.0316 µM, first compound 0.1 µM
[13] = second compound 0.1 µM, first compound 0.000316 µM
[14] = second compound 0.1 µM, first compound 0.001 µM
[15] = second compound 0.1 µM, first compound 0.00316 µM
[16] = second compound 0.1 µM, first compound 0.01 µM
[17] = second compound 0.1 µM, first compound 0.0316 µM
[18] = second compound 0.1 µM, first compound 0.1 µM
[19] = second compound 0.316 µM, first compound 0.000316 µM
[20] = second compound 0.316 µM, first compound 0.001 µM
[21] = second compound 0.316 µM, first compound 0.00316 µM
[22] = second compound 0.316 µM, first compound 0.01 µM
[23] = second compound 0.316 µM, first compound 0.0316 µM
[24] = second compound 0.316 µM, first compound 0.1 µM
[25] = second compound 1 µM, first compound 0.000316 µM
[26] = second compound 1 µM, first compound 0.001 µM
[27] = second compound 1 µM, first compound 0.00316 µM
[28] = second compound 1 µM, first compound 0.01 µM
[29] = second compound 1 µM, first compound 0.0316 µM
[30] = second compound 1 µM, first compound 0.1 µM
[31] = second compound 3.16 µM, first compound 0.000316 µM
[32] = second compound 3.16 µM, first compound 0.001 µM
[33] = second compound 3.16 µM, first compound 0.00316 µM
[34] = second compound 3.16 µM, first compound 0.01 µM
[35] = second compound 3.16 µM, first compound 0.0316 µM
[36] = second compound 3.16 µM, first compound 0.1 µM
[37] = second compound 10 µM, first compound 0.000316 µM
[38] = second compound 10 µM, first compound 0.001 µM
[39] = second compound 10 µM, first compound 0.00316 µM
[40] = second compound 10 µM, first compound 0.01 µM
[41] = second compound 10 µM, first compound 0.0316 µM
[42] = second compound 10 µM, first compound 0.1 µM

Structure (SMILES): CC(C)n1nc(-c2ccc3oc(N)nc3c2)c2c(N)ncnc21 + CC(Nc1ncnc2nc[nH]c12)c1cc2cccc(Cl)c2c(=O)n1-c1ccccc1
- IC50 [1]: 70.5 nM
- IC50 [2]: 83.5 nM
- IC50 [3]: 61.8 nM
- IC50 [4]: 72.2 nM
- IC50 [5]: 64.3 nM
- IC50 [6]: 50.9 nM
- viability, T/C [7]: 116%
- viability, T/C [8]: 103%
- viability, T/C [9]: 98.8%
- viability, T/C [10]: 97.3%
- viability, T/C [11]: 90%
- viability, T/C [12]: 33.1%
- viability, T/C [13]: 92.2%
- viability, T/C [14]: 76.5%
- viability, T/C [15]: 87.8%
- viability, T/C [16]: 92.8%
- viability, T/C [17]: 79.2%
- viability, T/C [18]: 44.6%
- viability, T/C [19]: 93.5%
- viability, T/C [20]: 107%
- viability, T/C [21]: 91.3%
- viability, T/C [22]: 104%
- viability, T/C [23]: 67.6%
- viability, T/C [24]: 37.3%
- viability, T/C [25]: 86.4%
- viability, T/C [26]: 107%
- viability, T/C [27]: 78.4%
- viability, T/C [28]: 90%
- viability, T/C [29]: 83.7%
- viability, T/C [30]: 36.6%
- viability, T/C [31]: 99.4%
- viability, T/C [32]: 94.2%
- viability, T/C [33]: 86.9%
- viability, T/C [34]: 76.2%
- viability, T/C [35]: 82.2%
- viability, T/C [36]: 33.1%
- viability, T/C [37]: 95%
- viability, T/C [38]: 75.1%
- viability, T/C [39]: 80.5%
- viability, T/C [40]: 75.6%
- viability, T/C [41]: 61.4%
- viability, T/C [42]: 35.1%

Structure (SMILES): CC(C)NCC(C(=O)N1CCN(c2ncnc3c2C(C)CC3O)CC1)c1ccc(Cl)cc1 (stereo unspecified)
- viability, T/C (compound 0.0316 µM): 99.4% [middle of 4 runs]
- viability, T/C (compound 0.1 µM): 83.5% [middle of 4 runs]
- viability, T/C (compound 0.316 µM): 84.9% [middle of 4 runs]
- viability, T/C (compound 1 µM): 79.4% [middle of 4 runs]
- viability, T/C (compound 3.16 µM): 64.1% [middle of 4 runs]
- viability, T/C (compound 10 µM): 52.3% [middle of 4 runs]
- IC50 (curve of compound): > 10000 nM

Structure (SMILES): CC(C)n1nc(-c2ccc3oc(N)nc3c2)c2c(N)ncnc21 + Cc1nc(NC(=O)N2CCCC2C(N)=O)sc1-c1ccnc(C(C)(C)C(F)(F)F)c1
- IC50 [1]: 72.6 nM
- IC50 [2]: 60.8 nM
- IC50 [3]: 52.5 nM
- IC50 [4]: 26.7 nM
- IC50 [5]: 9.07 nM
- IC50 [6]: < 0.316 nM
- viability, T/C [7]: 106%
- viability, T/C [8]: 94.2%
- viability, T/C [9]: 95.9%
- viability, T/C [10]: 95.9%
- viability, T/C [11]: 78.8%
- viability, T/C [12]: 38.7%
- viability, T/C [13]: 110%
- viability, T/C [14]: 87.2%
- viability, T/C [15]: 99.3%
- viability, T/C [16]: 109%
- viability, T/C [17]: 79%
- viability, T/C [18]: 27.9%
- viability, T/C [19]: 101%
- viability, T/C [20]: 98.9%
- viability, T/C [21]: 82.3%
- viability, T/C [22]: 92.7%
- viability, T/C [23]: 67.4%
- viability, T/C [24]: 26.9%
- viability, T/C [25]: 89%
- viability, T/C [26]: 93.2%
- viability, T/C [27]: 86.3%
- viability, T/C [28]: 70.7%
- viability, T/C [29]: 47%
- viability, T/C [30]: 21.2%
- viability, T/C [31]: 62.9%
- viability, T/C [32]: 68.3%
- viability, T/C [33]: 64.6%
- viability, T/C [34]: 42.7%
- viability, T/C [35]: 33.1%
- viability, T/C [36]: 6.08%
- viability, T/C [37]: 37.5%
- viability, T/C [38]: 40.2%
- viability, T/C [39]: 33.1%
- viability, T/C [40]: 21.7%
- viability, T/C [41]: 12.8%
- viability, T/C [42]: 2.67%
